The source of these data is patent US4568490A, “Aminopropylaminobleomycin derivatives and process for preparation thereof” (Zaidan Hojin Biseibutsu Kagaku Kenkyu Kai, priority 1981, dated 1986).

Data set [1] concerns Mycobacterium smegmatis ATCC 607. As to the kind of experiment: Antimicrobial activity, agar plate-cylinder method. The data set is classed as cell-based. The following applies: Cu-free form; bleomycin A2 (Cu-free form) standard assumed 1,000 mcg/mg. Here is the method: (§1) The activity was assayed against the above test microorganisms by the method of agar plate-cylinder, assuming the potency of bleomycin A2 (Cu-free form), used as standard, to be 1,000 mcg/mg.

The test system of a further data set is Bacillus subtilis. As to the kind of experiment: Antimicrobial activity, agar plate-cylinder method. The class given is cell-based. The following applies: Cu-free form; bleomycin A2 (Cu-free form) standard assumed 1,000 mcg/mg. Here is the method:
(1) Antimicrobial activity against Mycobacterium smegmatis ATCC 697 and Bacillus subtilis.
as §1

A further data set concerns Hela S3 cells. As to the kind of experiment: Growth inhibitory activity against Hela S3 cells. The class given is cell-based. The following applies: Cu-free form; Hela S3, 3 days incubation with compound. On the procedure:
The percentage growth inhibition was calculated using the equation: […] wherein A is the ultimate number of cells on the third day from the addition of a test sample, B is the ultimate number of cells in the control (without the addition of test sample), and C is the number of cells on the day of addition of the test sample.

The next data set deals with ICR strain mice. As to the kind of experiment: Pulmonary toxicity (pulmonary fibrosis) in mice, intraperitoneal injection. The class given is in vivo. The following applies: 5 mg/kg i.p. once a day for 10 days; for Grade of pulmonary fibrosis, % / Incidence of pulmonary fibrosis, % / Incidence: number of mice suffering from pulmonary fibrosis / Grade: total score of pulmonary fibrosis/total number of test animal: autopsy after 5 weeks; for Incidence: number of mice suffering from pulmonary fibrosis: affected/total mice; for Grade: total score of pulmonary fibrosis/total number of test animal: score 0-6 points; for Grade of pulmonary fibrosis, Ratio / Incidence of pulmonary fibrosis, Ratio: reference of the ratio not stated. A digest of the protocol:
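Male ICR mice, 15 weeks old, 9 per group, received 5 mg/kg intraperitoneally once daily for 10 days. They were autopsied after 5 weeks' observation for pulmonary fibrosis incidence and grade: 1, alveolar exudate/septal fibrosis-like change; 2, fibrosis in several areas; 4, scattered fibrosis; 6, fibrosis over >2/3 of area.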

In data set [2] the test system is Lymphocytic leukemia P-388. Kind of data set: In vivo antitumor activity, murine lymphocytic leukemia P-388. The following applies: BDF1-SLC mice, i.p. transplant, once daily for 9 days, 30 days observation; T/C more than 130 effective. Here is the method:
The following data with respect to the testing of a group of the presently claimed substances in vivo according to a standard test method involving murine lymphocytic leukemia P-388 is presented to lend further assurance as to the utility of the compounds as inhibitors of mammalian tumors.
Lymphocytic leukemia P-388 cells (1×10^5 /0.2 ml) were transplanted intraperitoneally into male BDF1 -SLC mice (5 mice/group). Each of the compounds of this invention was diluted with physiological saline to various concentrations. Each dilution was administered at a dose of 0.1 ml/10 g of body weight once daily for 9 days, starting on the day after the day of the transplantation. The mice of the control group were administered physiological saline.
The average number of days that the group receiving the compound of this invention survived was calculated. The figure obtained was divided by the average number of survival days for the control group, and was multiplied by 100 (T/C (%)).
T/C value more than 130 was considered to be effective.

The test system of data set [3] is CDF1 /SLC strain male mice. As to the kind of experiment: Acute toxicity, LD50 on 10 consecutive days. The class given is in vivo. The following applies: subcutaneous, Behrens-Karber method. On the procedure: LD50 was assayed by administering several representative compounds of this invention for 10 consecutive days.
CDF1 /SLC strain male mice (each 6 weeks old, 7 members per group) were subcutaneously administered with various compounds of this invention, the dose being different with each compound. LD50 (daily dose) was estimated from the mortality during the administration period by the Behrens-Karber method.

For a further data set, the system named is ICR mice. Kind of data set: Pulmonary toxicity (pulmonary fibrosis) in mice, intratracheal instillation. The following applies: 16 μg/50 μl/mouse intratracheally, sacrificed 4 weeks after instillation; for Grade: total score of pulmonary fibrosis/total number of samples: score 0-6 points. The class given is in vivo. Here is the method:
Male 15 weeks old ICR mice were used. Sixteen μg/50 μl/mouse of each test sample was intratracheally instilled. The mice were sacrificed 4 weeks after instillation to examine the incidence and grade of pulmonary fibrosis. The evaluation was made by comparing the number of administered mice suffering from pulmonary fibrosis and the grade of the disease.
In Tables 4A and 4B, the grade was numerically rated as follows:
1 point: Accumulation of exudate in pulmonary alveoli and fibrosis-like change in alveolar septum.
2 points: Fibrosis in several areas.
4 points: Scattered fibrosis.
6 points: Fibrosis in more than two-thirds of the total area.

With `Cc1c(N)nc(C(CC(N)=O)NCC(N)C(N)=O)nc1C(=O)NC(C(=O)NC(C)C(O)C(C)C(=O)NC(C(=O)NCCc1nc(-c2nc(C(=O)NCCCN3CCN(CCCN(Cc4ccccc4)Cc4ccccc4)CC3)cs2)cs1)C(C)O)C(OC1OC(CO)C(O)C(O)C1OC1OC(CO)C(O)C(OC(N)=O)C1O)c1cnc[nH]1` (stereo not drawn) [Compound No. 43], the “Antimicrobial potency of Cu--free compound, against Mycobacterium smegmatis ATCC 607” value in data set [1] is 14420 mcg potency per mg. For the same compound, in the data set on Bacillus subtilis, the “Antimicrobial potency of Cu--free compound, against Bacillus subtilis” value is on record as 1230 mcg potency per mg. Further, the “50% growth inhibition concentration (ID50) of Cu--free compound against cultured Hela cell” value with Hela S3 cells was found to be 0.50 µg/mL. Besides, in the data set with ICR strain mice, the “Grade of pulmonary fibrosis, %” value came out at 0%; the “Incidence of pulmonary fibrosis, %” value was determined as 0%; the “Incidence: number of mice suffering from pulmonary fibrosis” value (“Incidence: number of mice suffering” for short) was 0/9; the “Grade: total score of pulmonary fibrosis/total number of test animal” value is recorded as 0/27. Besides, in the data set on ICR strain mice, the “Grade of pulmonary fibrosis, Ratio” value is 0.00 and the “Incidence of pulmonary fibrosis, Ratio” value worked out at 0.00. Moreover, the “Max. T/C on Mouse Lymphocytic Leukemia P 388” value in data set [2] was 182%. Moreover, the “LD50 (daily dose)” value in data set [3] is on record as 12.5 mg/kg/day.

On to `CC[N+](CC)(CCCNC(=O)c1csc(-c2csc(CCNC(=O)C(NC(=O)C(C)C(O)C(C)NC(=O)C(NC(=O)c3nc(C(CC(N)=O)NCC(N)C(N)=O)nc(N)c3C)C(OC3OC(CO)C(O)C(O)C3OC3OC(CO)C(O)C(OC(N)=O)C3O)c3cnc[nH]3)C(C)O)n2)n1)CCCN(Cc1ccccc1)Cc1ccccc1` (stereo not drawn) [Compound No. 37, 3-[N,N-diethyl-N-(3'-dibenzylamino)propyl]aminopropylaminobleomycin], for which the “Antimicrobial potency of Cu--free compound, against Mycobacterium smegmatis ATCC 607” value in data set [1] worked out at 10680 mcg potency per mg. Besides, the “Antimicrobial potency of Cu--free compound, against Bacillus subtilis” value with Bacillus subtilis worked out at 1047 mcg potency per mg. In addition, the “50% growth inhibition concentration (ID50) of Cu--free compound against cultured Hela cell” value in the data set on Hela S3 cells came out at 0.70 µg/mL. Besides, the “Max. T/C on Mouse Lymphocytic Leukemia P 388” value in data set [2] turned out to be 168%. Further, the “LD50 (daily dose)” value in data set [3] was found to be 50.0 mg/kg/day.

As for `Cc1c(N)nc(C(CC(N)=O)NCC(N)C(N)=O)nc1C(=O)NC(C(=O)NC(C)C(O)C(C)C(=O)NC(C(=O)NCCc1nc(-c2nc(C(=O)NCCCN(C)CCCNCc3ccc(OCc4ccccc4)c(OCc4ccccc4)c3)cs2)cs1)C(C)O)C(OC1OC(CO)C(O)C(O)C1OC1OC(CO)C(O)C(OC(N)=O)C1O)c1cnc[nH]1` (stereo not drawn) [compound 15], in data set [1], the “Antimicrobial potency of Cu--free compound, against Mycobacterium smegmatis ATCC 607” value was 4516 mcg potency per mg. In the data set with Bacillus subtilis, the “Antimicrobial potency of Cu--free compound, against Bacillus subtilis” value was 1772 mcg potency per mg. For the same compound, in the data set with Hela S3 cells, the “50% growth inhibition concentration (ID50) of Cu--free compound against cultured Hela cell” value came out at 0.36 µg/mL. Also, in the data set with ICR strain mice, the “Grade of pulmonary fibrosis, %” value was determined as 4%; the “Incidence of pulmonary fibrosis, %” value is reported as 11%; the “Incidence: number of mice suffering” value was 1/9; the “Grade: total score of pulmonary fibrosis/total number of test animal” value is given as 1/27. Besides, in the data set on ICR strain mice, the “Grade of pulmonary fibrosis, Ratio” value is 0.05 and the “Incidence of pulmonary fibrosis, Ratio” value amounted to 0.18. In addition, in the data set on ICR mice, the “Grade of pulmonary fibrosis, %” value is reported as 4%; the “Incidence of pulmonary fibrosis, %” value came to 13%; the “Incidence: number of mice with pulmonary fibrosis/number of mice” value was 1/8; the “Grade: total score of pulmonary fibrosis/total number of samples” value is reported as 1/24. For the same compound, in data set [2], the “Max. T/C on Mouse Lymphocytic Leukemia P 388” value amounted to 165%.

For `Cc1c(N)nc(C(CC(N)=O)NCC(N)C(N)=O)nc1C(=O)NC(C(=O)NC(C)C(O)C(C)C(=O)NC(C(=O)NCCc1nc(-c2nc(C(=O)NCCC[N+](C)(C)CCCN(Cc3ccccc3)Cc3ccccc3)cs2)cs1)C(C)O)C(OC1OC(CO)C(O)C(O)C1OC1OC(CO)C(O)C(OC(N)=O)C1O)c1cnc[nH]1` (stereo not drawn) [compound 35, 3-{N,N--Dimethyl-N--[3'-(dibenzylamino)propyl]amino}propylaminoBLM], the “Antimicrobial potency of Cu--free compound, against Mycobacterium smegmatis ATCC 607” value in data set [1] worked out at 13784 mcg potency per mg. In addition, the “Antimicrobial potency of Cu--free compound, against Bacillus subtilis” value with Bacillus subtilis is 1742 mcg potency per mg. Also, the “50% growth inhibition concentration (ID50) of Cu--free compound against cultured Hela cell” value in the data set with Hela S3 cells is 0.87 µg/mL. Besides, in the data set with ICR strain mice, the “Grade of pulmonary fibrosis, %” value was determined as 0%; the “Incidence of pulmonary fibrosis, %” value was found to be 0%; the “Incidence: number of mice suffering” value was 0/9; the “Grade: total score of pulmonary fibrosis/total number of test animal” value was 0/27. In addition, in the data set on ICR strain mice, the “Grade of pulmonary fibrosis, Ratio” value was determined as 0.00 and the “Incidence of pulmonary fibrosis, Ratio” value is 0.00. In the data set on ICR mice, the “Grade of pulmonary fibrosis, %” value stood at 8%; the “Incidence of pulmonary fibrosis, %” value was determined as 25%; the “Incidence: number of mice with pulmonary fibrosis/number of mice” value was 2/8; the “Grade: total score of pulmonary fibrosis/total number of samples” value is 2/24. Moreover, the “Max. T/C on Mouse Lymphocytic Leukemia P 388” value in data set [2] came out at 153%.

Consider `Cc1c(N)nc(C(CC(N)=O)NCC(N)C(N)=O)nc1C(=O)NC(C(=O)NC(C)C(O)C(C)C(=O)NC(C(=O)NCCc1nc(-c2nc(C(=O)NCCC[N+](C)(CCCN(Cc3ccccc3)Cc3ccccc3)Cc3ccccc3)cs2)cs1)C(C)O)C(OC1OC(CO)C(O)C(O)C1OC1OC(CO)C(O)C(OC(N)=O)C1O)c1cnc[nH]1` (stereo not drawn) [compound 39, 3-{N--Methyl-N--benzyl-N--[3'-(dibenzylamino)propyl]amino}propylaminoBLM], for which, in data set [1], the “Antimicrobial potency of Cu--free compound, against Mycobacterium smegmatis ATCC 607” value is recorded as 7746 mcg potency per mg. Also, in the data set on Bacillus subtilis, the “Antimicrobial potency of Cu--free compound, against Bacillus subtilis” value was 580 mcg potency per mg. For the same compound, the “50% growth inhibition concentration (ID50) of Cu--free compound against cultured Hela cell” value in the data set on Hela S3 cells was determined as 2.30 µg/mL. For the same compound, in the data set on ICR strain mice, the “Grade of pulmonary fibrosis, %” value was determined as 0%; the “Incidence of pulmonary fibrosis, %” value is 0%; the “Incidence: number of mice suffering” value is recorded as 0/9; the “Grade: total score of pulmonary fibrosis/total number of test animal” value is recorded as 0/27. In addition, in the data set on ICR strain mice, the “Grade of pulmonary fibrosis, Ratio” value amounted to 0.00 and the “Incidence of pulmonary fibrosis, Ratio” value amounted to 0.00. In addition, in the data set with ICR mice, the “Grade of pulmonary fibrosis, %” value turned out to be 15%; the “Incidence of pulmonary fibrosis, %” value is reported as 22%; the “Incidence: number of mice with pulmonary fibrosis/number of mice” value was 2/9; the “Grade: total score of pulmonary fibrosis/total number of samples” value is reported as 4/27. Also, the “Max. T/C on Mouse Lymphocytic Leukemia P 388” value in data set [2] is recorded as 163%.

Consider `Cc1c(N)nc(C(CC(N)=O)NCC(N)C(N)=O)nc1C(=O)NC(C(=O)NC(C)C(O)C(C)C(=O)NC(C(=O)NCCc1nc(-c2nc(C(=O)NCCCN(C)CCCN(Cc3ccccc3)Cc3ccccc3)cs2)cs1)C(C)O)C(OC1OC(CO)C(O)C(O)C1OC1OC(CO)C(O)C(OC(N)=O)C1O)c1cnc[nH]1` (stereo not drawn) [compound 27, 3-{N--Methyl-N--[3'-(dibenzylamino)propyl]amino}propylaminoBLM], for which the “Antimicrobial potency of Cu--free compound, against Mycobacterium smegmatis ATCC 607” value in data set [1] is recorded as 14194 mcg potency per mg. In addition, the “Antimicrobial potency of Cu--free compound, against Bacillus subtilis” value in the data set on Bacillus subtilis is reported as 1138 mcg potency per mg. Also, in the data set on Hela S3 cells, the “50% growth inhibition concentration (ID50) of Cu--free compound against cultured Hela cell” value was 0.89 µg/mL. In the data set on ICR strain mice, the “Grade of pulmonary fibrosis, %” value is reported as 7%; the “Incidence of pulmonary fibrosis, %” value is listed as 20%; the “Incidence: number of mice suffering” value was 1/5; the “Grade: total score of pulmonary fibrosis/total number of test animal” value is 1/15. Further, in the data set on ICR strain mice, the “Grade of pulmonary fibrosis, Ratio” value is 0.08 and the “Incidence of pulmonary fibrosis, Ratio” value was 0.32. For the same compound, in the data set with ICR mice, the “Grade of pulmonary fibrosis, %” value turned out to be 7%; the “Incidence of pulmonary fibrosis, %” value worked out at 22%; the “Incidence: number of mice with pulmonary fibrosis/number of mice” value is listed as 2/9; the “Grade: total score of pulmonary fibrosis/total number of samples” value was 2/27. In addition, in data set [2], the “Max. T/C on Mouse Lymphocytic Leukemia P 388” value turned out to be 149%.
